Key:
Test in all cases: Bliss excess, mean over the matrix (fraction); higher = more synergy
[1] = tested on: SCC-3 (B-Cell Non-Hodgkin's Lymphoma)
In short: (§1)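 Bliss excess equals the observed combination effect minus the expected value EA + EB − EA·EB, where EA and EB are the effects of each agent alone. Combination Emax is the second-highest inhibition within the matrix. Inhibition was scaled from CellTiter-Glo 2.0 luminescence, with 0 set by vehicle wells and 1 by blank wells, after 72 hours of two-drug dosing of cells plated in 1536-well plates.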

[2] = tested on: HSC-2 (Oral Cavity Carcinoma)
In short: as §1

[3] = tested on: NCI-H1573 (Lung Adenocarcinoma)
In short: as §1

[4] = tested on: KP-2 (Pancreatic Carcinoma)
In short: as §1

[5] = tested on: EW-3 (Ewing's Sarcoma)
In short: as §1

[6] = tested on: OCUM-1 (Gastric Carcinoma)
In short: as §1

[7] = tested on: TGBC11TKB (Gastric Carcinoma)
In short: as §1

[8] = tested on: HC-1 (Other Blood Carcinomas)
In short: as §1

[9] = tested on: NCI-N87 (Gastric Carcinoma)
In short: as §1

[10] = tested on: KYSE-150 (Esophageal Squamous Cell Carcinoma)
In short: as §1

[11] = tested on: RPMI-7951 (Melanoma)
In short: as §1

[12] = tested on: MFE-319 (Endometrial Carcinoma)
In short: as §1

[13] = tested on: NH-12 (Neuroblastoma)
In short: as §1

[14] = tested on: BV-173 (Chronic Myelogenous Leukemia)
In short: as §1

[15] = tested on: NCI-H513 (Other Solid Carcinomas)
In short: as §1

[16] = tested on: EW-18 (Ewing's Sarcoma)
In short: as §1

[17] = tested on: NCI-H2347 (Lung Adenocarcinoma)
In short: as §1

[18] = tested on: PF-382 (T-Lymphoblastic Leukemia)
In short: as §1

[19] = tested on: GI-1 (Glioblastoma)
In short: as §1

[20] = tested on: JHH-7 (Hepatocellular Carcinoma)
In short: as §1

Structure (SMILES) | Bliss excess [1] | Bliss excess [2] | Bliss excess [3] | Bliss excess [4] | Bliss excess [5] | Bliss excess [6] | Bliss excess [7] | Bliss excess [8] | Bliss excess [9] | Bliss excess [10] | Bliss excess [11] | Bliss excess [12] | Bliss excess [13] | Bliss excess [14] | Bliss excess [15] | Bliss excess [16] | Bliss excess [17] | Bliss excess [18] | Bliss excess [19] | Bliss excess [20]
COc1cccc(OCCCN)c1-c1cc(Nc2cnc(C#N)cn2)n[nH]1 [Prexasertib] + C[C@@H]1COCCN1C2=NC(=NC(=C2)C3(CC3)[S@](=N)(=O)C)C4=C5C=CNC5=NC=C4 [AZD6738] (first compound max 1 µM, 7x7, partner max 10 µM) | -0.0201 | 0.0649 | 0.0055 | -0.0324 | -0.0275 | -0.0698 | -0.0137 | -0.0139 | -0.0253 | -0.0265 | -0.0372 | -0.0238 | -0.0392 | -0.0473 | -0.0104 | -0.0548 | -0.081 | -0.0558 | -0.0195 | 0.0381
COc1cccc(OCCCN)c1-c1cc(Nc2cnc(C#N)cn2)n[nH]1 [Prexasertib] + Cc1cc2ncnn2cc1Nc1ncc2c(n1)n(C1CCOCC1)c(=O)n2C [AZD7648] (first compound max 1 µM, 7x7, partner max 10 µM) | -0.0082 | -0.0403 | 0.0058 | 0.0258 | 0.0201 | 0.0005 | -0.0148 | 0.0069 | -0.0119 | -0.0312 | 0.0049 | -0.0064 | -0.0133 | -0.0218 | 0.0134 | -0.0679 | -0.0552 | -0.0131 | -0.019 | -0.0143
COc1nnc2ccc(N3CCC(c4ccc(OCCN5CCN(C)C(=O)[C@H]5C)cc4)CC3)nn12 [AZD5153] + C[C@@H]1COCCN1C2=NC(=NC(=C2)C3(CC3)[S@](=N)(=O)C)C4=C5C=CNC5=NC=C4 [AZD6738] (first compound max 1 µM, 7x7, partner max 10 µM) | -0.0195 | -0.0039 | 0.0531 | 0.0565 | -0.0647 | 0.0413 | -0.046 | -0.0468 | -0.0135 | -0.0482 | 0.0423 | -0.0852 | -0.0381 | -0.0506 | 0.0117 | -0.0306 | 0.0599 | 0.0239 | 0.0053 | 0.04
CS(=O)(=O)CCNCc1ccc(-c2ccc3ncnc(Nc4ccc(OCc5cccc(F)c5)c(Cl)c4)c3c2)o1 [Lapatinib] + C[C@@H](Oc1cc(-c2cnn(C3CCNCC3)c2)cnc1N)c1c(Cl)ccc(F)c1Cl [Crizotinib] (first compound max 10 µM, 7x7, partner max 10 µM) | 0.0226 | 0.0028 | 0.121 | -0.0353 | -0.0505 | -0.0252 | -0.027 | -0.0124 | -0.0456 | -0.0355 | -0.0655 | -0.0205 | -0.0827 | -0.037 | -0.0342 | -0.0533 | -0.0421 | -0.0296 | -0.0444 | -0.0055
CCN(CCO)CCCOc1ccc2c(Nc3cc(CC(=O)Nc4cccc(F)c4)[nH]n3)ncnc2c1 [AZD2811] + C=CCn1c(=O)c2cnc(Nc3ccc(N4CCN(C)CC4)cc3)nc2n1-c1cccc(C(C)(C)O)n1 [AZD1775] (first compound max 1 µM, partner max 1 µM) | -0.011 | 0.0771 | -0.0457 | -0.001 | 0.0844 | -0.0127 | 0.0257 | 0.0697 | -0.0657 | 0.0438 | 0.0106 | -0.0361 | -0.0012 | -0.0222 | -0.0195 | -0.134 | -0.0475 | -0.0432 | 0.0285 | -0.0186
COc1nnc2ccc(N3CCC(c4ccc(OCCN5CCN(C)C(=O)[C@H]5C)cc4)CC3)nn12 [AZD5153] + CC1(C)CCC(CN2CCN(c3ccc(C(=O)NS(=O)(=O)c4ccc(NCC5CCOCC5)c([N+](=O)[O-])c4)c(Oc4cnc5[nH]ccc5c4)c3)CC2)=C(c2ccc(Cl)cc2)C1 [Venetoclax] (first compound max 1 µM, 7x7, partner max 1 µM) | -0.0213 | -0.0196 | -0.0885 | -0.0381 | -0.0801 | -0.0456 | -0.0783 | 0.0089 | -0.0978 | 0.0061 | -0.0292 | -0.124 | -0.0333 | -0.0706 | -0.086 | -0.0371 | -0.11 | -0.0551 | 0.0247 | -0.0676
Cc1c2c(nn1C)CSCc1cc(n(C)n1)CSc1cc(c3ccccc3c1)OCCCc1c(C(=O)O)n(C)c3c-2c(Cl)ccc13 [AZD5991] + CN(C)CCCOc1ccc(-c2ccc3ncc4c(c3c2)n(C2CCOCC2)c(=O)n4C)cn1 [AZD0156] (first compound max 1 µM, 7x7, partner max 1 µM) | 0.0027 | -0.0089 | -0.0443 | -0.0125 | -0.0499 | -0.016 | 0.007 | -0.0479 | 0.0027 | -0.0143 | -0.0382 | 0.0347 | -0.0511 | -0.114 | -0.004 | -0.0213 | -0.0188 | 0.0109 | 0.0067 | -0.0091
CC(=O)c1c(C)c2cnc(Nc3ccc(N4CCNCC4)cn3)nc2n(C2CCCC2)c1=O [Palbociclib] + Cc1c2c(nn1C)CSCc1cc(n(C)n1)CSc1cc(c3ccccc3c1)OCCCc1c(C(=O)O)n(C)c3c-2c(Cl)ccc13 [AZD5991] (first compound max 10 µM, 7x7, partner max 1 µM) | 0.0284 | -0.0997 | -0.0539 | -0.0445 | -0.0003 | -0.0315 | -0.0473 | -0.152 | -0.0373 | -0.0278 | -0.0742 | -0.111 | 0.0045 | -0.105 | -0.0484 | -0.0135 | -0.0677 | -0.0193 | -0.0123 | -0.0346
Cn1cnc2c(F)c(Nc3ccc(Br)cc3Cl)c(C(=O)NOCCO)cc21 [Selumetinib] + C[C@@H]1COCCN1C2=NC(=NC(=C2)C3(CC3)[S@](=N)(=O)C)C4=C5C=CNC5=NC=C4 [AZD6738] (first compound max 10 µM, 7x7, partner max 10 µM) | 0.0368 | -0.0553 | 0.0488 | 0.121 | -0.0489 | -0.0359 | 0.0232 | -0.0743 | -0.0604 | 0.0348 | 0.0239 | 0.0065 | 0.0315 | -0.0149 | 0.0555 | -0.0471 | 0.0844 | -0.0047 | -0.0338 | -0.0073
CN(CCO)CC[C@H](CSc1ccccc1)Nc1ccc(S(=O)(=O)NC(=O)c2ccc(N3CCC([C@@H](O)c4ccccc4-c4ccc(Cl)cc4)CC3)cc2)cc1S(=O)(=O)C(F)(F)F [AZD4320] + C=CCn1c(=O)c2cnc(Nc3ccc(N4CCN(C)CC4)cc3)nc2n1-c1cccc(C(C)(C)O)n1 [AZD1775] (first compound max 1 µM, partner max 1 µM) | 0.0329 | 0.058 | -0.0052 | 0.0889 | 0.11 | 0.03 | 0.0443 | 0.206 | 0.0086 | -0.0634 | -0.0023 | 0.0537 | -0.0149 | -0.0038 | 0.0699 | 0.0349 | 0.034 | -0.0132 | 0.0542 | 0.0362
COc1cccc2c1C(=O)c1c(O)c3c(c(O)c1C2=O)C[C@@](O)(C(=O)CO)C[C@@H]3O[C@H]1C[C@H](N)[C@H](O)[C@H](C)O1 [Doxorubicin] + Cc1cc2ncnn2cc1Nc1ncc2c(n1)n(C1CCOCC1)c(=O)n2C [AZD7648] (first compound max 1 µM, 7x7, partner max 10 µM) | 0.158 | 0.0891 | -0.0038 | 0.0223 | 0.005 | 0.0162 | -0.0146 | 0.0693 | -0.0298 | 0.0648 | 0.0709 | 0.0152 | 0.0953 | 0.0953 | 0.0341 | 0.0402 | -0.0486 | 0.109 | 0.107 | 0.0271
CN(C)CCCOc1ccc(-c2ccc3ncc4c(c3c2)n(C2CCOCC2)c(=O)n4C)cn1 [AZD0156] + C[C@@H]1COCCN1C2=NC(=NC(=C2)C3(CC3)[S@](=N)(=O)C)C4=C5C=CNC5=NC=C4 [AZD6738] (first compound max 1 µM, 7x7, partner max 10 µM) | 0.0521 | 0.0867 | -0.0098 | 0.0173 | -0.0721 | 0.0437 | 0.0055 | -0.0214 | -0.0286 | 0.0146 | 0.0468 | -0.0027 | -0.0215 | 0.0179 | 0.0235 | 0.0047 | -0.049 | 0.0357 | -0.0234 | 0.0082
COc1cccc(OCCCN)c1-c1cc(Nc2cnc(C#N)cn2)n[nH]1 [Prexasertib] + C=CCn1c(=O)c2cnc(Nc3ccc(N4CCN(C)CC4)cc3)nc2n1-c1cccc(C(C)(C)O)n1 [AZD1775] (first compound max 1 µM, partner max 1 µM) | 0.051 | 0.178 | 0.108 | 0.112 | 0.0286 | 0.0518 | 0.0431 | 0.0149 | -0.0324 | 0.149 | 0.0723 | -0.0049 | 0.047 | -0.0251 | 0.0545 | -0.0615 | -0.0548 | -0.0038 | 0.05 | 0.107
CC1(C)CCC(CN2CCN(c3ccc(C(=O)NS(=O)(=O)c4ccc(NCC5CCOCC5)c([N+](=O)[O-])c4)c(Oc4cnc5[nH]ccc5c4)c3)CC2)=C(c2ccc(Cl)cc2)C1 [Venetoclax] + C1CN(CCC1(C(=O)N[C@@H](CCO)C2=CC=C(C=C2)Cl)N)C3=NC=NC4=C3C=CN4 [Capivasertib] (first compound max 1 µM, 7x7, partner max 3 µM) | -0.0335 | -0.0823 | -0.0733 | -0.0586 | 0.0001 | -0.0252 | -0.0374 | 0.0217 | -0.0833 | 0.0107 | -0.0233 | -0.0414 | -0.0289 | -0.0613 | -0.071 | -0.0281 | -0.0627 | -0.0144 | -0.0234 | -0.0266
